Results on 5 compounds are retold here after the NIST ThermoML archive (doi:10.1016/j.jct.2005.12.004).

Numbers after ± are expanded uncertainties.

The conditions of data set [1]: DTA.
A short description of data set [2]: Molar enthalpy of transition or fusion. The settings on record: DSC.

As to `NCCCCCCN` [1,6-hexanediamine], the Normal melting temperature in data set [1] (Crystal) was 38.5 ± 0.53 °C. Also, the “Molar enthalpy of transition or fusion” value in data set [2] (Crystal) is 39.4 ± 1.1 kJ/mol.
The like results for `NCCCCCCCCN` [1,8-diaminooctane] were, in that order, 51.73 ± 0.53 °C and 50.5 ± 1.2 kJ/mol.
On to `NCCCCCCCCCN` [1,9-diaminononane], for which the Normal melting temperature in data set [1] (Crystal 1) came out at 34.62 ± 0.53 °C. For the same compound, the Triple point temperature in data set [1] (Crystal 2) is recorded as 301.14 ± 0.53 K. Moreover, the “Molar enthalpy of transition or fusion” value in data set [2] (Crystal 1) stood at 35.4 ± 1.1 kJ/mol; in data set [2] (Crystal 2), 8.56 ± 0.84 kJ/mol.
Consider `NCCCCCCCCCCCCN` [1,12-dodecanediamine], for which the Normal melting temperature in data set [1] (Crystal) is 68.69 ± 0.53 °C. Besides, the “Molar enthalpy of transition or fusion” value in data set [2] (Crystal) worked out at 67 ± 1.5 kJ/mol.
The like results for `c1ccc(-c2ccccc2)cc1` [biphenyl] were, in that order, 69.22 ± 0.53 °C and 19.7 ± 0.9 kJ/mol.
